Experimental data as given in the supplement of paper PMC12076712.

Columns and labels:
Assay in all cases: pIC50, kinobeads binding competition
Conditions in all cases: cell material: Jurkat lysate
UHMK1 = molecular target: T1, UHMK1 (UniProt Q8TAS1)
T1 sequence (whole entry): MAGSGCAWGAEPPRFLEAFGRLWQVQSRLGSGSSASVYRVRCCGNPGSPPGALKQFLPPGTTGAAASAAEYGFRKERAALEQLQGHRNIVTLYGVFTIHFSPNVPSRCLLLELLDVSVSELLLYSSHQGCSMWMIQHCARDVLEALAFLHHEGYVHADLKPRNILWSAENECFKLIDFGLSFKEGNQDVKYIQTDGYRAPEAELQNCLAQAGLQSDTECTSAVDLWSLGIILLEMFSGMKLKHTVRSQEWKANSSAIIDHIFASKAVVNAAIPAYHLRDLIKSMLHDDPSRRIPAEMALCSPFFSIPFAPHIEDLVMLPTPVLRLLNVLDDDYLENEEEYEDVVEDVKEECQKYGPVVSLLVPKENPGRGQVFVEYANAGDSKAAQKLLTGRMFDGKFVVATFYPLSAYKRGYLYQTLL

LATS1 = molecular target: T2, LATS1 (UniProt O95835)
T2 sequence (whole entry): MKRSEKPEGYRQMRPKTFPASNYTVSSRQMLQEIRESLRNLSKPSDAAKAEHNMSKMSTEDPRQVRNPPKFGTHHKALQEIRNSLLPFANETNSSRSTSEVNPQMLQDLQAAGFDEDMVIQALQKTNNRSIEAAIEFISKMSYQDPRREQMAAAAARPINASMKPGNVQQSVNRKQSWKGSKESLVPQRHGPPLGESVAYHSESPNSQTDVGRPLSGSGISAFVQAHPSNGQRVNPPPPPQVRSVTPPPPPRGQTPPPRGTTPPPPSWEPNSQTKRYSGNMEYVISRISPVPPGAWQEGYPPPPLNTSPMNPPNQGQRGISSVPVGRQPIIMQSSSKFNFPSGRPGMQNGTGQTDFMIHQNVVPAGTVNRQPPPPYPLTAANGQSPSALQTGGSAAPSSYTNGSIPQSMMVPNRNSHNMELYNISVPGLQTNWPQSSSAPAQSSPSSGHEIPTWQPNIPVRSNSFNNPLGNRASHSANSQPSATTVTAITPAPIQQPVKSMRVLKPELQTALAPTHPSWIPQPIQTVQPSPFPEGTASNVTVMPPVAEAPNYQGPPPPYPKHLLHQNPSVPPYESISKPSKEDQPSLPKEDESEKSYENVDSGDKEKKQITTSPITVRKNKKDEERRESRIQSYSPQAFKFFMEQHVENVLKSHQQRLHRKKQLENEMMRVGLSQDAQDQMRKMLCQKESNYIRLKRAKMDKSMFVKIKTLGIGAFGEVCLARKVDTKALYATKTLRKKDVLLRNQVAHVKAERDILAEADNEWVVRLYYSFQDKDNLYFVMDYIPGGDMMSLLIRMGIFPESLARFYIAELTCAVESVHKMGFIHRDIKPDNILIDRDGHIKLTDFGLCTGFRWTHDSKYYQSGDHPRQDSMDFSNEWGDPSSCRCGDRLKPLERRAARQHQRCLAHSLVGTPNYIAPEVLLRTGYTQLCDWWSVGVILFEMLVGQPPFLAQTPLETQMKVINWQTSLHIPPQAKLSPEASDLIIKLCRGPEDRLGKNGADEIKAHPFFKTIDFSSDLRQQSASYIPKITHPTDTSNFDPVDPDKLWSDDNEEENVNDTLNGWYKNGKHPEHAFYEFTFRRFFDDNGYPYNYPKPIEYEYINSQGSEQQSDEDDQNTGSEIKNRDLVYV

UniProt Q16659 = molecular target: UniProt Q16659
Chain of UniProt Q16659 (Q16659 whole entry): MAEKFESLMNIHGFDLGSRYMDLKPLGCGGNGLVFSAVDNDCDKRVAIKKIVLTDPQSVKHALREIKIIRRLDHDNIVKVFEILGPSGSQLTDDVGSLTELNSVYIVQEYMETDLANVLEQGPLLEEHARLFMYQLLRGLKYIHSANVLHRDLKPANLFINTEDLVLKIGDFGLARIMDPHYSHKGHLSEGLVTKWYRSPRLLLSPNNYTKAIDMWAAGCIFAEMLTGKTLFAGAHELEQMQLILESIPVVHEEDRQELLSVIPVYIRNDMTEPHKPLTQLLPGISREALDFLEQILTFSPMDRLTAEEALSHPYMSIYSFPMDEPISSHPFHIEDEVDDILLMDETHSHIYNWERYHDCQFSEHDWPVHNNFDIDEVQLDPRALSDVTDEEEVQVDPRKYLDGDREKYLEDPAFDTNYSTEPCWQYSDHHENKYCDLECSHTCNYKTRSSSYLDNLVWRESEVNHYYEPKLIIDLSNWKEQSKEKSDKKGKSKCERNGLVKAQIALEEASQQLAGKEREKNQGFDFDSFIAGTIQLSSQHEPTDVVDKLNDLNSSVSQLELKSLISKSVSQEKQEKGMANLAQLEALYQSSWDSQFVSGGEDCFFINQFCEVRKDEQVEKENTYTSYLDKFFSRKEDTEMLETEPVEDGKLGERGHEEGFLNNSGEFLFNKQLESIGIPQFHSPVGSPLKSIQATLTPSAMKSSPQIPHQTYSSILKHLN

PAK1 = PAK1 (UniProt Q13153)
Chain of PAK1 (Q13153 whole entry): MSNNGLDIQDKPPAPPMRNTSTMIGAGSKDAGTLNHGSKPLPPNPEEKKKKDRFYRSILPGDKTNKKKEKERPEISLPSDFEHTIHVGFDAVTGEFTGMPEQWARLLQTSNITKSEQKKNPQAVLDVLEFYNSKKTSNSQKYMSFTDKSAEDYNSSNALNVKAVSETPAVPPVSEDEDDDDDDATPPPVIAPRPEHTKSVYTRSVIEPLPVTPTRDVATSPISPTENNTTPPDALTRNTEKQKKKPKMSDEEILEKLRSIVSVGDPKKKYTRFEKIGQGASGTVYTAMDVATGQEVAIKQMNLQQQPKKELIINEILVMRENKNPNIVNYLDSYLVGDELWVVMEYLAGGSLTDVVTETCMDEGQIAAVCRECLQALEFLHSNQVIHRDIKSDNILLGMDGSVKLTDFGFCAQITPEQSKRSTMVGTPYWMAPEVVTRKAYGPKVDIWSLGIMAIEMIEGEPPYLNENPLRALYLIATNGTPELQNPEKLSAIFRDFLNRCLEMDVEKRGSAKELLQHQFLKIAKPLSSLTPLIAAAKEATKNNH

Measured: pIC50

CCc1cnn2c(NCc3ccc[n+]([O-])c3)cc(N3CCCC[C@H]3CCO)nc12 [dinaciclib]
< 4.52: all assays above
